# Results from PMC6295231 (Clinical cancer research : an official journal of the …, 2018).
# Experiments:
# purified human AR = target: T1, purified human AR (Homo sapiens, UniProt P10275); assay: surface plasmon resonance, binding to immobilized AR; conditions: for Kd: dissociation constant (Kd) for binding to AR, SPR, AR immobilized
# T1 sequence (P10275 1-920): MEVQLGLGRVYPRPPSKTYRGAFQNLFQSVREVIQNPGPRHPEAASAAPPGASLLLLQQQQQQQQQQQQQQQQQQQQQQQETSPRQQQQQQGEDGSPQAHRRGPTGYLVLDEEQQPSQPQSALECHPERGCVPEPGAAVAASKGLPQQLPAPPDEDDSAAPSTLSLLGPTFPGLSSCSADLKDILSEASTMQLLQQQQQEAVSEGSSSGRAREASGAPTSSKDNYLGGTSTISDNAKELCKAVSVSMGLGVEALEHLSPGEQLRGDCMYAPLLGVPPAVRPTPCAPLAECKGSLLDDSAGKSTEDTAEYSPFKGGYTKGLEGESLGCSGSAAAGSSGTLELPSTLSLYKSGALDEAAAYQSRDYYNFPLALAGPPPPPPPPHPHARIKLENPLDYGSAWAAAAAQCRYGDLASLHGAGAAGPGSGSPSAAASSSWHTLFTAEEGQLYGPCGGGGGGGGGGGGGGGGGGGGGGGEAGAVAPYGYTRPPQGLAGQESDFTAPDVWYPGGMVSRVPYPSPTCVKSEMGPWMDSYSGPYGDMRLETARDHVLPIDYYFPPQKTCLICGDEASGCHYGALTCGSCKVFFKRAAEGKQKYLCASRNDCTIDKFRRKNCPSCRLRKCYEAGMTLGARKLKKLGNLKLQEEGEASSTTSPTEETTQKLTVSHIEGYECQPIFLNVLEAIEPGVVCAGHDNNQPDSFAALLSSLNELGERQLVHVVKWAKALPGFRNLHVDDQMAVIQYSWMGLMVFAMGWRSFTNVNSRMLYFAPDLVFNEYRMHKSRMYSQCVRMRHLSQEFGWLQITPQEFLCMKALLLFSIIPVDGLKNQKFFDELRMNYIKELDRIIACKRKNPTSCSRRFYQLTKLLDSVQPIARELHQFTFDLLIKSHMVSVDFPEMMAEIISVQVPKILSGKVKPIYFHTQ
# [1] = tested on: ELK1-dependent promoter activation by AR; assay: primary screening assay; type: cell-based; conditions: for IC50 for inhibition of ELK1-dependent promoter activation by AR: primary screening assay, compound dose range of 1-10μM; for IC50: Homo sapiens, HeLa, read-out: IC50 for inhibition of ELK1-dependent promoter activation by AR
# [2] = tested on: ARE-dependent promoter activation by AR; assay: counter screening assay; type: cell-based; conditions: words
# [3] = easily oxidized; ref [33], [34]; cited from earlier work
# [4] = tested on: activation of ELK1 by MEK/ERK; type: cell-based; conditions: HeLa cells co-transfected
# 22Rv1 cells = assay: MTT growth assay, 22Rv1; conditions: androgen-independent cells; up to 20 uM
# VCaP cells = assay: MTT growth assay, VCaP; conditions: androgen-dependent cells
# LNCaP cells = assay: MTT growth assay, LNCaP; conditions: androgen-dependent cells; up to 20 uM
# [5] = tested on: PDX-PR011 tumor xenograft; assay: PDX-PR011 patient-derived tumor xenograft in male SCID mice; conditions: for tumor growth, PDX-PR011 xenograft: treatment from Day 1 after implantation
# ELK1 (Homo sapiens) = ELK1 (Homo sapiens) (UniProt P19419); conditions: cited from earlier work
# [6] = tested on: AR recruitment to chromatin in LNCaP cells; assay: chromatin immunoprecipitation; type: cell-based; conditions: R1881 10nM + KCI807 20uM, 2h
# [7] = tested on: H1650 (lung adenocarcinoma cells); assay: growth of AR-negative cells, H1650; type: cell-based
# [8] = mouse, in vivo
# [9] = tested on: HeLa (cervical cancer cells); assay: growth of AR-negative cells, HeLa; type: cell-based
# [10] = target: association of AR with ELK1 (Homo sapiens, UniProt P10275); assay: BRET assay of association of ELK1 with AR in HEK293T cells; type: cell-based; conditions: pre-incubation
# AR-V7 = assay: hormone-independent promoter activation by AR-V7; type: cell-based; conditions: relatively higher concentrations required
# [11] = tested on: DU145 (prostate cancer cells); assay: growth of AR-negative cells, DU145; type: cell-based
# [12] = tested on: AR target genes in 22Rv1 cells; assay: real time RT-PCR of AR target genes in 22Rv1 cells; type: cell-based; conditions: 10 µM, 72h
# ELK1 = ELK1 (Homo sapiens, UniProt P19419); assay: surface plasmon resonance, binding to immobilized ELK1; conditions: SPR
# in vivo = conditions: SCID, mouse
# [13] = plasma/serum levels and metabolites of KCI807 by LC-MS/MS; conditions: mice, 250 mg/kg IP alternate days, 6h after last injection
# [14] = tested on: HEK293 (adenovirus transformed kidney fibroblasts); assay: growth of AR-negative cells, HEK293; type: cell-based
# [15] = tested on: AR or AR-V7 protein level; assay: protein level of AR / AR-V7 in PC/CRPC cell lines; type: cell-based
# 22Rv1 CRPC cells = assay: colony formation assay, 22Rv1
# binding of AR to ELK1 = binding of AR to ELK1 (Homo sapiens, UniProt P10275); assay: SPR competition: binding of AR; conditions: AR 200 nM
# ELK1 (Homo sapiens), sequence (P19419 whole entry): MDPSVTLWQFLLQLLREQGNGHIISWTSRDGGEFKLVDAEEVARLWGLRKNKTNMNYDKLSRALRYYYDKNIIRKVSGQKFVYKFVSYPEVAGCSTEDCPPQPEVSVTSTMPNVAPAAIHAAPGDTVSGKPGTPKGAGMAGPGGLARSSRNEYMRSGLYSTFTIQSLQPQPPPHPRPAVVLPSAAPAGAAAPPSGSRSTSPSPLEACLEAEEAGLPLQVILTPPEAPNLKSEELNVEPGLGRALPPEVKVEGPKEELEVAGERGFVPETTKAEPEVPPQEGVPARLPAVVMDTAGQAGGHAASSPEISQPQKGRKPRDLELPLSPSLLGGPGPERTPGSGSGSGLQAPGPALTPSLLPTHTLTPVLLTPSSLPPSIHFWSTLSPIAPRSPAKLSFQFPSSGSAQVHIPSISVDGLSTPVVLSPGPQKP
# ELK1, sequence (P19419 whole entry): as above
compound,measurement,setting,value
O=c1cc(-c2cccc(O)c2)oc2ccccc12 [3’-Hydroxyflavone],Kd,purified human AR,1.43 µM
same,IC50 for inhibition of ELK1-dependent promoter activation by AR,[1],No effect
O=c1cc(-c2ccc(O)c(O)c2)oc2ccccc12 [3’.4’-Dihydroxyflavone],IC50 for inhibition of ELK1-dependent promoter activation by AR,[1],No effect
"COc1ccc(-c2cc(=O)c3c(O)cc(O)cc3o2)cc1O [5,7,3’-Trihydroxy-4’-methoxyflavone]",IC50,[1],1.37 µM
"O=c1cc(-c2ccc(O)cc2)oc2cc(O)ccc12 [7,4’-Dihydroxyflavone]",IC50 for inhibition of ELK1-dependent promoter activation by AR,[1],No effect
"O=c1cc(-c2ccc(O)c(O)c2)oc2cc(O)cc(O)c12 [Hit 1, 5,7,3’,4’-Tetrahydroxyflavone]",IC50,[1],1.01 µM
same,inhibition at 10 µM,"[1]; Mus musculus, MIN6, 6 h, read-out: inhibition in the primary screen",80 to 100%
same,effect on ARE-dependent promoter activation by AR (counter screen),[2],virtual absence of an effect
same,stability in vitro,[3],highly unstable
"COc1cc(-c2cc(=O)c3c(O)cc(O)cc3o2)ccc1O [5,7,4’-Trihydroxy-3’-methoxyflavone]",IC50 for inhibition of ELK1-dependent promoter activation by AR,[1],No effect
O=c1cc(-c2ccccc2)oc2cc(O)cc(O)c12 [5.7-Dihydroxyflavone],IC50 for inhibition of ELK1-dependent promoter activation by AR,[1],No effect
"O=c1cc(-c2cccc(O)c2)oc2cc(O)ccc12 [7,3’-Dihydroxyflavone]",IC50 for inhibition of ELK1-dependent promoter activation by AR,[1],No effect
"CC(=O)Nc1cccc(-n2c(=O)n(C3CC3)c(=O)c3c(Nc4ccc(I)cc4F)n(C)c(=O)c(C)c32)c1 [trametinib, reference compound]","inhibition of luciferase reporter activation by MEK1 (caMEK1, Gal4-ELK1)",[4],completely inhibited
"CNC(=O)c1ccc(N2C(=S)N(c3ccc(C#N)c(C(F)(F)F)c3)C(=O)C2(C)C)cc1F [enzalutamide, reference compound]","cell growth inhibition, MTT, 22Rv1",22Rv1 cells,only showed partial effects
same,"cell growth inhibition, MTT, VCaP",VCaP cells,most sensitive
same,"cell growth inhibition, MTT, LNCaP",LNCaP cells,only showed partial effects
same,"tumor growth, PDX-PR011 xenograft",[5],insensitive
"O=c1cc(-c2ccc(O)cc2)oc2cccc(O)c12 [5,4’-Dihydroxyflavone]",IC50,[1],5.48 µM
AR (from UniProt P10275),Kd,ELK1 (Homo sapiens),0.02 µM
"O=c1cc(-c2ccc(O)c(O)c2)oc2cccc(O)c12 [5,3’,4’-Trihydroxyflavone]",IC50,[1],1.01 µM
"O=c1cc(-c2cccc(O)c2)oc2cccc(O)c12 [KCI807, 5,3’-Dihydroxyflavone]","AR recruitment at canonical ARE enhancer sites (KLK3, TMPRSS2)",[6],did not impede
same,association of AR with chromatin sites at which ELK1 recruits AR,[6],prevented association
same,dissociation constant for AR relative to that for binding of ELK1 to AR,purified human AR; ELK1-AR value ref [25],~ 3 times
same,Kd,purified human AR,0.0692 µM
same,growth of H1650 cells,[7],did not appreciably affect
same,immediate and peri-acute post-injection toxicity (dose determination),[8],asymptomatic post all doses given
same,growth of HeLa cells,[9],did not appreciably affect
same,IC50,[1],0.53 µM
same,BRET coupling between ELK1 and AR,[10],inhibited
same,"cell growth inhibition, MTT, 22Rv1",22Rv1 cells,completely inhibited cell growth
same,hormone-independent promoter activation by splice variant AR-V7,AR-V7,inhibited
same,growth of DU145 cells,[11],did not appreciably affect
same,expression of AR target genes (mRNA),[12],decreased expression of only the genes known to be supported synergistically by ELK1 and AR
same,binding to immobilized ELK1,ELK1,did not bind
same,half-life,in vivo,6 h
same,"plasma level of unmetabolized compound (median), Day 11",[13],387 nM
same,"plasma level of unmetabolized compound (median), Day 19",[13],70 nM
same,"inhibition of luciferase reporter activation by MEK1 (caMEK1, Gal4-ELK1)",[4],did not inhibit
same,growth of HEK293 cells,[14],did not appreciably affect
same,expression of AR or AR-V7 proteins,[15],does not affect
same,"cell growth inhibition, MTT, VCaP",VCaP cells,most sensitive
same,"cell growth inhibition, MTT, LNCaP",LNCaP cells,completely inhibited cell growth
same,concentration beyond which colony growth was virtually completely inhibited,22Rv1 CRPC cells,> 125 nM
same,blocking of binding of purified AR (analyte) to immobilized ELK1,binding of AR to ELK1,blocked binding
same,symptoms during PDX-PR011 study,"[5]; mouse, in vivo",asymptomatic
same,weight loss during PDX-PR011 study,"[5]; mouse, in vivo",did not show appreciable weight loss
same,"tumor growth, PDX-PR011 xenograft",[5],significantly inhibited
"COc1ccc(-c2cc(=O)c3c(O)c(OC)c(OC)cc3o2)cc1O [5,3’-Dihydroxy-6,7,4’-trimethoxyflavone]",IC50,[1],4.17 µM
"O=c1cc(-c2ccc(O)c(O)c2)oc2cc(O)ccc12 [7,3’,4’-Trihydroxyflavone]",IC50 for inhibition of ELK1-dependent promoter activation by AR,[1],No effect
"COc1c(-c2ccc(O)c(O)c2)oc2cc(O)cc(O)c2c1=O [5,7,3’,4’-Tetrahydroxy-3-methoxyflavone]",IC50 for inhibition of ELK1-dependent promoter activation by AR,[1],No effect
O=c1cc(-c2ccccc2)oc2cccc(O)c12 [5-Hydroxyflavone],IC50,[1],> 10 µM
"COc1cc(OC)c2c(=O)cc(-c3ccc(OC)c(OC)c3)oc2c1 [5,7,3’,4’-Tetramethoxyflavone]",IC50 for inhibition of ELK1-dependent promoter activation by AR,[1],No effect
